{"source": "patent US10807992B2", "about": "“Single enantiomer antiparasitic compounds” (priority 2017, dated 2020)", "assay": "Dog PK study of C1 (S) enantiomer, single oral dose, plasma and whole blood by chiral LC-MS/MS", "type": "in vivo, beagle dogs", "conditions": "for AUC(0-t): read-out: NCA AUC0-last; for AUC(0-inf): read-out: NCA AUC0-∞", "procedure": "This study assessed the in vivo pharmacokinetic (PK) behavior of a single oral dose of the C1 (S) enantiomer in beagle dogs (Charles River study# 20104466). Solutions of C1 (S) enantiomer were dosed by oral gavage (10mg/kg) to a group of dogs (n=3). Blood samples were collected pre-dose and at 0.25, 0.5, 1, 2, 4, and 8 hours following dosing on Day 1. Blood samples were also collected on Days1, 2, 3, 5, 7, 10, 14, 17, 21, 25, 28, 32, 35, 39, 43, and 45. A portion of each whole blood sample was processed to plasma. Test article concentrations in plasma and whole blood were determined using liquid chromatography tandem mass spectrometry (LC-MS/MS).\nCalibration curves were constructed by spiking racemic 1-[6-[5-(3,5-dichloro-4-fluoro-phenyl)-5-(trifluoromethyl)-4H-isothiazol-3-yl]spiro[1H-isobenzofuran-3,3′-azetidine]-1′-yl]-3,3,3-trifluoro-propan-1-one into aliquots of blank K2EDTA beagle plasma or whole blood (Bioreclamation, Westbury, N.Y.) at the following nominal concentrations: 5, 10, 20, 50, 100, 200, 500, 1000, 2000, 5000, and 10000 ng/mL. Quality control samples (QCs) were prepared in the same manner at the following concentrations: 15, 30, 150, 800, 1600, 4000, and 8000 ng/mL.\nSamples (double blanks, blank+IS, blank+drug, standards, QC samples, and study samples) were extracted using a protein precipitation procedure. A 50 μL aliquot of plasma or blood was transferred into a deep well 96-well plate. To the sample aliquot, 250 μL of an internal standard (IS) solution for plasma or 300 μL for blood was added. The internal standard solution contained Afoxolaner at 50 ng/mL in methanol. For double blanks and blank+drug, neat methanol instead of IS was added. The 96-well plate was capped, shaken for ten minutes, and centrifuged at 5000 relative centrifugal force (RCF) for 10 minutes at 15° C. A 150-200 μL aliquot of the resulting supernatant of each sample was transferred to a clean, 96-well microtiter plate. The microtiter plate was capped and subjected to LC-MS/MS analysis.\nThe LC-MS/MS system consisted of a Leap autosampler, an Agilent 1100 series liquid chromatography pump, and a SciexAPI4000 mass spectrometer operated in triple quadrupole mode. A ChiralPak IA column (4.6×150mm, 5μm particle, Supplier Daicel PN 80324)at room temperature was used with water as mobile phase A and neat acetonitrile as mobile phase B. The LC gradient, MS parameters, and gas parameters are shown in the tables 2-4, respectively.\nThe mass spectrometer (MS) was operated in negative Turbo IonSpray™ mode with Multiple Reaction Monitoring (MRM).\nFollowing LC-MS/MS analysis, peak area ratios were calculated (analyte peak area divided by internal standard peak area). Standard curves were created by generating least squares fitting plots of peak area ratio versus nominal concentration. Sample concentrations were calculated from the results of the least squares fits.\nCmax and Tmax are the observed maximum drug concentration and the time at which the maximum concentration occurs, respectively. Area under the curve (AUC) was calculated using the linear trapezoid method. To calculate half-lives (t1/2), a least squares regression was performed on a log concentration (C) versus time (t) plot (semi-log plot) to obtain the slope, k. The t1/2 is equal to 0.693/k. The t1/2 was calculated using data points in the elimination phase. For oral PK, Cl/F=Dose/AUC.\nIn this report, PK calculations were normalized to the measured dose solution concentrations. Note that in all figures and tables below, the nominal dose is listed.", "key": {"[1]": {"conditions": "dog, plasma, Beagle, oral 10 mg/kg, read-out: Plasma Concentration"}, "[2]": {"conditions": "dog, whole blood, Beagle, oral 10 mg/kg, read-out: Blood Concentration"}, "[3]": {"conditions": "dog, plasma, Beagle, oral gavage 10 mg/kg"}, "[4]": {"conditions": "dog, whole blood, Beagle, oral gavage 10 mg/kg"}, "[5]": {"conditions": "plasma, Beagle, oral gavage 10 mg/kg, 10 mg/kg"}, "[6]": {"conditions": "same dose level, beagle vs. mongrels"}}, "note": "Where two headings read alike, the source gives them in different places."}
{"smiles": "O=C(CC(F)(F)F)N1CC2(C1)OCc1cc(C3=NS[C@@](c4cc(Cl)c(F)c(Cl)c4)(C(F)(F)F)C3)ccc12", "note": "[C1 (S) enantiomer, (S)-1-[6-[5-(3,5-dichloro-4-fluoro-phenyl)-5-(trifluoromethyl)-4H-isothiazol-3-yl]spiro[1H-isobenzofuran-3,3′-azetidine]-1′-yl]-3,3,3-trifluoro-propan-1-one]", "values": [{"measurement": "Blood Concentration", "setting": "1080 hr, Beagle, oral 10 mg/kg", "value": "BQL ^b"}, {"measurement": "concentration in plasma relative to blood concentration", "setting": "after 240 hours", "value": "about twice the blood concentration"}, {"measurement": "concentrations in blood and plasma compared", "setting": "at 48 hours", "value": "similar"}, {"measurement": "average half-life compared with the racemate", "setting": "beagle PK study vs. racemate oral efficacy studies in mongrels", "value": "shorter than that of the racemate"}, {"measurement": "Tmax", "setting": "beagle, dog, plasma, po, 10 mg/kg, plasma, Beagle, oral gavage 10 mg/kg, read-out: Tmax", "value": 2, "unit": "h"}, {"measurement": "CL/F", "setting": "beagle, dog, plasma, po, 10 mg/kg, oral gavage 10 mg/kg", "value": 0.833, "unit": "mL/min/kg"}, {"measurement": "Tmax", "setting": "beagle, dog, whole blood, po, 10 mg/kg, whole blood, Beagle, oral gavage 10 mg/kg, read-out: Tmax", "value": 1.7, "unit": "h"}, {"measurement": "CL/F", "setting": "beagle, dog, whole blood, po, 10 mg/kg, oral gavage 10 mg/kg", "value": 1.12, "unit": "mL/min/kg"}, {"measurement": "bioconversion to the C1 (R) enantiomer in vivo", "setting": "chiral HPLC chromatograms of all study samples, dog", "value": "No bioconversion was observed"}, {"measurement": "concentration at 1080 hr", "setting": "dog, in vivo, 1080 hr, Beagle, oral 10 mg/kg", "value": "15.7 ± 6.3", "unit": "ng/mL"}, {"measurement": "concentration at 0.25 hr", "setting": "[1]", "value": "291 ± 57", "unit": "ng/mL"}, {"measurement": "concentration at 0.5 hr", "setting": "[1]", "value": "1170 ± 250", "unit": "ng/mL"}, {"measurement": "concentration at 1 hr", "setting": "[1]", "value": "1920 ± 330", "unit": "ng/mL"}, {"measurement": "concentration at 2 hr", "setting": "[1]", "value": "2260 ± 170", "unit": "ng/mL"}, {"measurement": "concentration at 4 hr", "setting": "[1]", "value": "2010 ± 360", "unit": "ng/mL"}, {"measurement": "concentration at 8 hr", "setting": "[1]", "value": "1110 ± 70", "unit": "ng/mL"}, {"measurement": "concentration at 24 hr", "setting": "[1]", "value": "664 ± 112", "unit": "ng/mL"}, {"measurement": "concentration at 48 hr", "setting": "[1]", "value": "567 ± 95", "unit": "ng/mL"}, {"measurement": "concentration at 72 hr", "setting": "[1]", "value": "552 ± 65", "unit": "ng/mL"}, {"measurement": "concentration at 120 hr", "setting": "[1]", "value": "393 ± 67", "unit": "ng/mL"}, {"measurement": "concentration at 168 hr", "setting": "[1]", "value": "298 ± 39", "unit": "ng/mL"}, {"measurement": "concentration at 240 hr", "setting": "[1]", "value": "270 ± 19", "unit": "ng/mL"}, {"measurement": "concentration at 336 hr", "setting": "[1]", "value": "219 ± 24", "unit": "ng/mL"}, {"measurement": "concentration at 408 hr", "setting": "[1]", "value": "135 ± 12", "unit": "ng/mL"}, {"measurement": "concentration at 504 hr", "setting": "[1]", "value": "103 ± 15", "unit": "ng/mL"}, {"measurement": "concentration at 600 hr", "setting": "[1]", "value": "80.4 ± 11.3", "unit": "ng/mL"}, {"measurement": "concentration at 672 hr", "setting": "[1]", "value": "55.6 ± 12.2", "unit": "ng/mL"}, {"measurement": "concentration at 768 hr", "setting": "[1]", "value": "47 ± 11.9", "unit": "ng/mL"}, {"measurement": "concentration at 840 hr", "setting": "[1]", "value": "37.4 ± 8.2", "unit": "ng/mL"}, {"measurement": "concentration at 936 hr", "setting": "[1]", "value": "24.8 ± 6.4", "unit": "ng/mL"}, {"measurement": "concentration at 1032 hr", "setting": "[1]", "value": "18.8 ± 5.5", "unit": "ng/mL"}, {"measurement": "concentration at 0.25 hr", "setting": "[2]", "value": "412 ± 89", "unit": "ng/mL"}, {"measurement": "concentration at 0.5 hr", "setting": "[2]", "value": "1660 ± 380", "unit": "ng/mL"}, {"measurement": "concentration at 1 hr", "setting": "[2]", "value": "3210 ± 230", "unit": "ng/mL"}, {"measurement": "concentration at 2 hr", "setting": "[2]", "value": "3560 ± 570", "unit": "ng/mL"}, {"measurement": "concentration at 4 hr", "setting": "[2]", "value": "2990 ± 340", "unit": "ng/mL"}, {"measurement": "concentration at 8 hr", "setting": "[2]", "value": "1220 ± 170", "unit": "ng/mL"}, {"measurement": "concentration at 24 hr", "setting": "[2]", "value": "708 ± 162", "unit": "ng/mL"}, {"measurement": "concentration at 48 hr", "setting": "[2]", "value": "572 ± 128", "unit": "ng/mL"}, {"measurement": "concentration at 72 hr", "setting": "[2]", "value": "428 ± 71", "unit": "ng/mL"}, {"measurement": "concentration at 120 hr", "setting": "[2]", "value": "292 ± 56", "unit": "ng/mL"}, {"measurement": "concentration at 168 hr", "setting": "[2]", "value": "245 ± 47", "unit": "ng/mL"}, {"measurement": "concentration at 240 hr", "setting": "[2]", "value": "136 ± 20", "unit": "ng/mL"}, {"measurement": "concentration at 336 hr", "setting": "[2]", "value": "100 ± 6", "unit": "ng/mL"}, {"measurement": "concentration at 408 hr", "setting": "[2]", "value": "75.8 ± 11.2", "unit": "ng/mL"}, {"measurement": "concentration at 504 hr", "setting": "[2]", "value": "57.3 ± 8.5", "unit": "ng/mL"}, {"measurement": "concentration at 600 hr", "setting": "[2]", "value": "41.2 ± 3.7", "unit": "ng/mL"}, {"measurement": "concentration at 672 hr", "setting": "[2]", "value": "30.5 ± 5.1", "unit": "ng/mL"}, {"measurement": "concentration at 768 hr", "setting": "[2]", "value": "21.5 ± 4.2", "unit": "ng/mL"}, {"measurement": "concentration at 840 hr", "setting": "[2]", "value": "17.4 ± 4.8", "unit": "ng/mL"}, {"measurement": "concentration at 936 hr", "setting": "[2]", "value": "14.3 ± 3.4", "unit": "ng/mL"}, {"measurement": "concentration at 1032 hr", "setting": "[2]", "value": 13.8, "unit": "ng/mL"}, {"measurement": "half-life", "setting": "[3]", "value": 205, "unit": "h"}, {"measurement": "Cmax", "setting": "dog, plasma, Beagle, oral gavage 10 mg/kg, read-out: Cmax", "value": 2260, "unit": "ng/mL"}, {"measurement": "AUC(0-t)", "setting": "[3]", "value": 191, "unit": "µg·h/mL"}, {"measurement": "AUC(0-inf)", "setting": "[3]", "value": 196, "unit": "µg·h/mL"}, {"measurement": "half-life", "setting": "[4]", "value": 209, "unit": "h"}, {"measurement": "Cmax", "setting": "dog, whole blood, Beagle, oral gavage 10 mg/kg, read-out: Cmax", "value": 3650, "unit": "ng/mL"}, {"measurement": "AUC(0-t)", "setting": "[4]", "value": "144 ± 11", "unit": "µg·h/mL"}, {"measurement": "AUC(0-inf)", "setting": "[4]", "value": 148, "unit": "µg·h/mL"}, {"measurement": "blood concentrations compared with plasma concentrations", "setting": "first few hours post-dose", "value": "significantly higher than the corresponding plasma concentrations"}, {"measurement": "affinity to red blood cells (RBC)", "setting": "initial phase post-dose", "value": "higher initial affinity to red blood cells (RBC)"}, {"measurement": "tlast", "setting": "plasma, Beagle, oral gavage 10 mg/kg", "value": 1080, "unit": "h"}, {"measurement": "Cl/F", "setting": "[5]", "value": "0.84 ± 0.0467", "unit": "mL/min/kg"}, {"measurement": "Cmax", "setting": "[5]", "value": "2260 ± 170", "unit": "ng/mL"}, {"measurement": "NCA AUC0-last", "setting": "[5]", "value": "191 ± 11", "unit": "µg·h/mL"}, {"measurement": "AUC compared with the racemate", "setting": "[6]", "value": "lower compared to those of the racemate"}, {"measurement": "Cmax compared with the racemate", "setting": "[6]", "value": "lower compared to those of the racemate"}, {"measurement": "Tmax", "setting": "whole blood, Beagle, oral gavage 10 mg/kg, 10 mg/kg", "value": "1.67 ± 0.58", "unit": "h"}]}
